Reference: patent US9833497B2, “Human originated EGF domain proteins and use of the same” (CHENGDU SOURCEBIO LIMITED-LIABILITY COMPANY, priority 2013, dated 2017)

What was measured:
Format in all cases: cell-based
E. coli DH5α = test: Antibacterial activity: MIC and growth curve against E. coli DH5α in 96-well plate; settings: minimal inhibitory concentration against E. coli DH5α; 96-well plate, 5×10^5 CFU/mL, 37° C., judged after 8 h
Outline: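 Log-phase bacteria (OD600 ~0.5) resuspended in LB at 5×10^5 CFU/mL, exposed to recombinant protein at 50, 25, 12.5 μg/mL final in triplicate, 37 °C shaking at 175 rpm. OD600 read every 30 min; MIC is lowest concentration showing no growth.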

E. coli BL21 = test: MIC against Gram-negative bacteria: E. coli BL21; settings: for MIC (μg/mL) E. coli BL21 / MIC against E. coli BL21: 5×10^5 CFU/mL
Outline: (§1)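 Two-fold serial dilutions of each purified human EGF domain protein, three replicate wells per level, were combined with bacteria at a final 5×10^5 CFU/mL in LB. Cultures were shaken at 175 rpm, 37° C. The MIC was taken as the minimum concentration preventing growth.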

Pseudomonas aeruginosa = test: MIC against Gram-negative bacteria: Pseudomonas aeruginosa; settings: for MIC (μg/mL) P. aeruginosa / MIC against P. aeruginosa: 5×10^5 CFU/mL
Outline: as §1

Klebsiella pneumonia = test: MIC against Gram-negative bacteria: Klebsiella pneumonia; settings: for MIC (μg/mL) K. pneumonia / MIC against K. pneumonia: 5×10^5 CFU/mL
Outline: as §1

Enterobacter cloacae = test: MIC against Gram-negative bacteria: Enterobacter cloacae; settings: for MIC (μg/mL) E. cloacae / MIC against E. cloacae: 5×10^5 CFU/mL
Outline: as §1

Aeromonas hydrophila = test: MIC against Gram-negative bacteria: Aeromonas hydrophila; settings: for MIC (μg/mL) A. hydrophila / MIC against A. hydrophila: 5×10^5 CFU/mL
Outline: as §1

Citrobacter diversus = test: MIC against Gram-negative bacteria: Citrobacter diversus; settings: for MIC (μg/mL) C. diversus / MIC against C. diversus: 5×10^5 CFU/mL
Outline: as §1

Moraxella catarrhalis = test: MIC against Gram-negative bacteria: Moraxella catarrhalis; settings: for MIC (μg/mL) M. catarrhalis / MIC against M. catarrhalis: 5×10^5 CFU/mL
Outline: as §1

Proteus mirabilis = test: MIC against Gram-negative bacteria: Proteus mirabilis; settings: for MIC (μg/mL) P. mirabilis / MIC against P. mirabilis: 5×10^5 CFU/mL
Outline: as §1

Proteus vulgaris = test: MIC against Gram-negative bacteria: Proteus vulgaris; settings: for MIC (μg/mL) P. vulgaris / MIC against P. vulgaris: 5×10^5 CFU/mL
Outline: as §1

Serratia marcescens = test: MIC against Gram-negative bacteria: Serratia marcescens; settings: for MIC (μg/mL) S. marcescens / MIC against S. marcescens: 5×10^5 CFU/mL
Outline: as §1

[1] = E. coli BL21, 10 h cultivation at 37° C.
[2] = P. aeruginosa, 10 h cultivation at 37° C.
[3] = K. pneumonia, 10 h cultivation at 37° C.
[4] = E. cloacae, 10 h cultivation at 37° C.
[5] = A. hydrophila, 10 h cultivation at 37° C.
[6] = C. diversus, 10 h cultivation at 37° C.
[7] = M. catarrhalis, 10 h cultivation at 37° C.
[8] = P. mirabilis, 10 h cultivation at 37° C.
[9] = P. vulgaris, 10 h cultivation at 37° C.
[10] = S. marcescens, 10 h cultivation at 37° C.
[11] = E. coli BL21, 96-well plate, 37° C., 10 h
[12] = Pseudomonas aeruginosa, 96-well plate, 37° C., 10 h
[13] = Klebsiella pneumonia, 96-well plate, 37° C., 10 h
[14] = Enterobacter cloacae, 96-well plate, 37° C., 10 h
[15] = Aeromonas hydrophila, 96-well plate, 37° C., 10 h
[16] = Citrobacter diversus, 96-well plate, 37° C., 10 h
[17] = Moraxella catarrhalis, 96-well plate, 37° C., 10 h
[18] = Proteus mirabilis, 96-well plate, 37° C., 10 h
[19] = Proteus vulgaris, 96-well plate, 37° C., 10 h
[20] = Serratia marcescens, 96-well plate, 37° C., 10 h

PRT263 (CSKNNGGCSPYATCKSTGDGQRTCTCDTAHTVGDGLTC; listed as Homo sapiens)
25 µg/mL: MIC (E. coli DH5α) | MIC (μg/mL) E. coli BL21 (E. coli BL21; [1]) | MIC (μg/mL) K. pneumonia (Klebsiella pneumonia; [3]) | MIC (μg/mL) A. hydrophila (Aeromonas hydrophila; [5])
12.5 µg/mL: MIC (μg/mL) P. aeruginosa (Pseudomonas aeruginosa; [2]) | MIC (μg/mL) E. cloacae (Enterobacter cloacae; [4]) | MIC (μg/mL) C. diversus (Citrobacter diversus; [6]) | MIC (μg/mL) M. catarrhalis (Moraxella catarrhalis; [7]) | MIC (μg/mL) P. mirabilis (Proteus mirabilis; [8]) | MIC (μg/mL) P. vulgaris (Proteus vulgaris; [9])
50 µg/mL: MIC (μg/mL) S. marcescens (Serratia marcescens; [10])

PRT1199 (AFCEEGCRYGGTCVAPNKCVCPSGFTGSHCE; listed as Homo sapiens)
25 µg/mL: MIC against A. hydrophila (Aeromonas hydrophila; [15]) | MIC against C. diversus (Citrobacter diversus; [16]) | MIC against P. mirabilis (Proteus mirabilis; [18]) | MIC against S. marcescens (Serratia marcescens; [20])
50 µg/mL: MIC (E. coli DH5α) | MIC against P. aeruginosa (Pseudomonas aeruginosa; [12]) | MIC against E. cloacae (Enterobacter cloacae; [14]) | MIC against P. vulgaris (Proteus vulgaris; [19])
12.5 µg/mL: MIC against E. coli BL21 (E. coli BL21; [11]) | MIC against K. pneumonia (Klebsiella pneumonia; [13]) | MIC against M. catarrhalis (Moraxella catarrhalis; [17])

PRT799 (FHACSCHNGASCSAEDGACHCTPGWTGLFCT; listed as Homo sapiens)
5 µg/mL: MIC (μg/mL) E. cloacae (Enterobacter cloacae; [4])
25 µg/mL: MIC (E. coli DH5α) | MIC (μg/mL) S. marcescens (Serratia marcescens; [10])
50 µg/mL: MIC (μg/mL) P. vulgaris (Proteus vulgaris; [9])
12.5 µg/mL: MIC (μg/mL) E. coli BL21 (E. coli BL21; [1]) | MIC (μg/mL) P. aeruginosa (Pseudomonas aeruginosa; [2]) | MIC (μg/mL) K. pneumonia (Klebsiella pneumonia; [3]) | MIC (μg/mL) A. hydrophila (Aeromonas hydrophila; [5]) | MIC (μg/mL) C. diversus (Citrobacter diversus; [6]) | MIC (μg/mL) M. catarrhalis (Moraxella catarrhalis; [7]) | MIC (μg/mL) P. mirabilis (Proteus mirabilis; [8])

PRT902 (DIDDCRPNPCHNGGSCTDGINTAFCDCLPGFRGTFCE; listed as Homo sapiens)
12.5 µg/mL: MIC (Pseudomonas aeruginosa; [2]) | MIC (Aeromonas hydrophila; [5]) | MIC (Proteus mirabilis; [8])
25 µg/mL: MIC (E. coli BL21; [1]) | MIC (Klebsiella pneumonia; [3]) | MIC (Moraxella catarrhalis; [7]) | MIC (Proteus vulgaris; [9])
50 µg/mL: MIC (E. coli DH5α) | MIC (Enterobacter cloacae; [4]) | MIC (Citrobacter diversus; [6]) | MIC (Serratia marcescens; [10])

PRT37 (IGVDCSDGFNGGCEQLCLQQMAPFPDDPTLYNILMFCGCIEDYKLGVDGRSCQ; listed as Homo sapiens)
50 µg/mL: MIC (μg/mL) E. coli BL21 (E. coli BL21; [11])
12.5 µg/mL: MIC (μg/mL) E. cloacae (Enterobacter cloacae; [14]) | MIC (μg/mL) A. hydrophila (Aeromonas hydrophila; [15]) | MIC (μg/mL) M. catarrhalis (Moraxella catarrhalis; [17]) | MIC (μg/mL) P. mirabilis (Proteus mirabilis; [18]) | MIC (μg/mL) S. marcescens (Serratia marcescens; [20])
25 µg/mL: MIC (E. coli DH5α) | MIC (μg/mL) P. aeruginosa (Pseudomonas aeruginosa; [12]) | MIC (μg/mL) K. pneumonia (Klebsiella pneumonia; [13]) | MIC (μg/mL) C. diversus (Citrobacter diversus; [16]) | MIC (μg/mL) P. vulgaris (Proteus vulgaris; [19])

PRT187 (KVDRCTSNPCANGGQCLNRGPSRMCRCRPGFTGTYCE; listed as Homo sapiens)
25 µg/mL: MIC (E. coli DH5α) | MIC (μg/mL) P. aeruginosa (Pseudomonas aeruginosa; [2]) | MIC (μg/mL) E. cloacae (Enterobacter cloacae; [4]) | MIC (μg/mL) C. diversus (Citrobacter diversus; [6]) | MIC (μg/mL) P. mirabilis (Proteus mirabilis; [8]) | MIC (μg/mL) S. marcescens (Serratia marcescens; [10])
12.5 µg/mL: MIC (μg/mL) E. coli BL21 (E. coli BL21; [1]) | MIC (μg/mL) K. pneumonia (Klebsiella pneumonia; [3]) | MIC (μg/mL) A. hydrophila (Aeromonas hydrophila; [5]) | MIC (μg/mL) M. catarrhalis (Moraxella catarrhalis; [7]) | MIC (μg/mL) P. vulgaris (Proteus vulgaris; [9])

PRT1022 (DIDECSEQPSVCGSHTICNNHPGTFRCECVEGYQFSDEGTCV; listed as Homo sapiens)
12.5 µg/mL: MIC (E. coli DH5α) | MIC (Pseudomonas aeruginosa; [2]) | MIC (Moraxella catarrhalis; [7]) | MIC (Proteus vulgaris; [9]) | MIC (Serratia marcescens; [10])
25 µg/mL: MIC (Klebsiella pneumonia; [3]) | MIC (Enterobacter cloacae; [4]) | MIC (Aeromonas hydrophila; [5])
50 µg/mL: MIC (E. coli BL21; [1]) | MIC (Citrobacter diversus; [6]) | MIC (Proteus mirabilis; [8])

PRT444 (GISECSSQPCQNGGTCVEGVNQYRCICPPGRTGNRCQ; listed as Homo sapiens)
12.5 µg/mL: MIC against E. coli BL21 (E. coli BL21; 96-well plate, 37° C., 10 h) | MIC against E. cloacae (Enterobacter cloacae; 96-well plate, 37° C., 10 h) | MIC against C. diversus (Citrobacter diversus; 96-well plate, 37° C., 10 h) | MIC against P. mirabilis (Proteus mirabilis; 96-well plate, 37° C., 10 h) | MIC against S. marcescens (Serratia marcescens; 96-well plate, 37° C., 10 h)
25 µg/mL: MIC (E. coli DH5α) | MIC against P. aeruginosa (Pseudomonas aeruginosa; 96-well plate, 37° C., 10 h)
50 µg/mL: MIC against K. pneumonia (Klebsiella pneumonia; 96-well plate, 37° C., 10 h) | MIC against A. hydrophila (Aeromonas hydrophila; 96-well plate, 37° C., 10 h) | MIC against M. catarrhalis (Moraxella catarrhalis; 96-well plate, 37° C., 10 h) | MIC against P. vulgaris (Proteus vulgaris; 96-well plate, 37° C., 10 h)

PRT1306 (CSLLCLPKANNSRSCRCPEDVSSSVLPSGDLMCDCPQGYQLKNNTCV; listed as Homo sapiens)
50 µg/mL: MIC against E. coli BL21 (E. coli BL21; [11]) | MIC against K. pneumonia (Klebsiella pneumonia; [13]) | MIC against C. diversus (Citrobacter diversus; [16]) | MIC against S. marcescens (Serratia marcescens; [20])
12.5 µg/mL: MIC against P. aeruginosa (Pseudomonas aeruginosa; [12]) | MIC against E. cloacae (Enterobacter cloacae; [14]) | MIC against P. mirabilis (Proteus mirabilis; [18])
25 µg/mL: MIC (E. coli DH5α) | MIC against A. hydrophila (Aeromonas hydrophila; [15]) | MIC against M. catarrhalis (Moraxella catarrhalis; [17]) | MIC against P. vulgaris (Proteus vulgaris; [19])

PRT825 (FGPNCTHVCGCGQGAACDPVTGTCLCPPGRAGVRCE; listed as Homo sapiens)
50 µg/mL: MIC (μg/mL) K. pneumonia (Klebsiella pneumonia; [3]) | MIC (μg/mL) M. catarrhalis (Moraxella catarrhalis; [7]) | MIC (μg/mL) P. vulgaris (Proteus vulgaris; [9])
12.5 µg/mL: MIC (μg/mL) E. coli BL21 (E. coli BL21; [1]) | MIC (μg/mL) A. hydrophila (Aeromonas hydrophila; [5]) | MIC (μg/mL) P. mirabilis (Proteus mirabilis; [8])
25 µg/mL: MIC (E. coli DH5α) | MIC (μg/mL) P. aeruginosa (Pseudomonas aeruginosa; [2]) | MIC (μg/mL) E. cloacae (Enterobacter cloacae; [4]) | MIC (μg/mL) C. diversus (Citrobacter diversus; [6]) | MIC (μg/mL) S. marcescens (Serratia marcescens; [10])
